The record followed here is patent US10308639B2, “Phosphatidylinositol 3-kinase inhibitors” (Gilead Sciences, Inc., priority 2014, dated 2019).

Like-named read-outs stand apart in the source and are kept apart here. Where only a bound is given, the exact number is not on record here.

Common to all, as to format: biochemical
One assay addresses T1, PI3Kγ (Homo sapiens, UniProt P48736).
T1 construct: made in house
Briefly: TR-FRET enzymatic activity assay, PI3Kγ. The note with it: read-out: PI3Kγ IC50. Put shortly: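 Compounds were profiled per isoform in a biochemical kinase reaction, with activity detected by time-resolved fluorescence resonance energy transfer.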
In general terms: TR-FRET usually uses a lanthanide donor and a delayed reading to cut background.

The target in a further assay is T2, PI3Kδ (Homo sapiens, UniProt O00329).
T2 construct: made in house
Briefly: TR-FRET enzymatic activity assay, PI3Kδ.

Another assay has as its target T3, PI3Kβ (Homo sapiens, UniProt P42338).
T3 construct: made in house
Briefly: TR-FRET enzymatic activity assay, PI3Kβ.

The mark [1] stands for this setting: Table 2, TR-FRET, 2x Km ATP, 30 minutes at 25° C.

T2 sequence (O00329 whole entry): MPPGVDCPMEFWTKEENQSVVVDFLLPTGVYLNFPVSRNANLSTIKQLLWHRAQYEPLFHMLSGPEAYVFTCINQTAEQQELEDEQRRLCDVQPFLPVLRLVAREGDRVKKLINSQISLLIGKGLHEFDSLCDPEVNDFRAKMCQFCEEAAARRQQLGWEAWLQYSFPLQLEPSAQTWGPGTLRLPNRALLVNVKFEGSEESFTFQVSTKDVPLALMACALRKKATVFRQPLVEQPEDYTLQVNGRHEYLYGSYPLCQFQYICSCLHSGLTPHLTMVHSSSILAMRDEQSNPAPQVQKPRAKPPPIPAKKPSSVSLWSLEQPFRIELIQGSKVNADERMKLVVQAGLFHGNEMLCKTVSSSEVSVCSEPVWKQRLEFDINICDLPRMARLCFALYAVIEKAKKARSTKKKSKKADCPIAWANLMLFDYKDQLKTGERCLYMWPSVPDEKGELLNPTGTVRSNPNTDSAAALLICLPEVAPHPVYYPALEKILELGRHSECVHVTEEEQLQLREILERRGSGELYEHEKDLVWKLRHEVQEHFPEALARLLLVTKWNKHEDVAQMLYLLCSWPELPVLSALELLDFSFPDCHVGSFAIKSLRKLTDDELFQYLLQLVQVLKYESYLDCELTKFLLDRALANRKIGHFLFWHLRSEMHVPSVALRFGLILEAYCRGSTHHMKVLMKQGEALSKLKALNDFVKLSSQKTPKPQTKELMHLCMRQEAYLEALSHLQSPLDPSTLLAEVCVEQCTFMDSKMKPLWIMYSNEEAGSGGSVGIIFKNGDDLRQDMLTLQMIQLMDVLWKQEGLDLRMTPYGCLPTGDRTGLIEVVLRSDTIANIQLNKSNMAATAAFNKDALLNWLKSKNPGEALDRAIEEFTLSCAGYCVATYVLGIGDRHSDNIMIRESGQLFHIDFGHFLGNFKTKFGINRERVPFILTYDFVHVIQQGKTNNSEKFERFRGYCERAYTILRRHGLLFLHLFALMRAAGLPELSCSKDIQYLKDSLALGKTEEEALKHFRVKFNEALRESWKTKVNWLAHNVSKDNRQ
T2 sequence (P27986 whole entry partner): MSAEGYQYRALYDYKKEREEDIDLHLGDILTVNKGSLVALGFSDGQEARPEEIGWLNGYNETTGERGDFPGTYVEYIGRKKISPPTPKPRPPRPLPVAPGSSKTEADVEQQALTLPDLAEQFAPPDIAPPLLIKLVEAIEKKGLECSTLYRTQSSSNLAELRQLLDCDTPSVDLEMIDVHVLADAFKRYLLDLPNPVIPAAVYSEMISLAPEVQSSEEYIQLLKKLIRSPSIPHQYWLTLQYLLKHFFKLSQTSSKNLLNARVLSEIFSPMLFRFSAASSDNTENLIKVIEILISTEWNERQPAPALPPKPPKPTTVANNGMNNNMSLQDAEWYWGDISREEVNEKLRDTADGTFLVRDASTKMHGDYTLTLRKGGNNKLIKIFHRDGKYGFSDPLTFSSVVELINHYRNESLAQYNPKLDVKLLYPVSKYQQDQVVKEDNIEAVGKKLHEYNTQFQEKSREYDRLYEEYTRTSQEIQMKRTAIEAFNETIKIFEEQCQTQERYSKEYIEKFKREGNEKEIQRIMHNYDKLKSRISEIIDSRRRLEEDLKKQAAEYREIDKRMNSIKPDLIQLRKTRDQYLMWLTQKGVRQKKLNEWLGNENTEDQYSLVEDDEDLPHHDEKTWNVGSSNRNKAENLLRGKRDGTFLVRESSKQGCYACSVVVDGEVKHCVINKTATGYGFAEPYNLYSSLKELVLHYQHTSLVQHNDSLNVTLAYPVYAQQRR
T3 sequence (P42338 whole entry): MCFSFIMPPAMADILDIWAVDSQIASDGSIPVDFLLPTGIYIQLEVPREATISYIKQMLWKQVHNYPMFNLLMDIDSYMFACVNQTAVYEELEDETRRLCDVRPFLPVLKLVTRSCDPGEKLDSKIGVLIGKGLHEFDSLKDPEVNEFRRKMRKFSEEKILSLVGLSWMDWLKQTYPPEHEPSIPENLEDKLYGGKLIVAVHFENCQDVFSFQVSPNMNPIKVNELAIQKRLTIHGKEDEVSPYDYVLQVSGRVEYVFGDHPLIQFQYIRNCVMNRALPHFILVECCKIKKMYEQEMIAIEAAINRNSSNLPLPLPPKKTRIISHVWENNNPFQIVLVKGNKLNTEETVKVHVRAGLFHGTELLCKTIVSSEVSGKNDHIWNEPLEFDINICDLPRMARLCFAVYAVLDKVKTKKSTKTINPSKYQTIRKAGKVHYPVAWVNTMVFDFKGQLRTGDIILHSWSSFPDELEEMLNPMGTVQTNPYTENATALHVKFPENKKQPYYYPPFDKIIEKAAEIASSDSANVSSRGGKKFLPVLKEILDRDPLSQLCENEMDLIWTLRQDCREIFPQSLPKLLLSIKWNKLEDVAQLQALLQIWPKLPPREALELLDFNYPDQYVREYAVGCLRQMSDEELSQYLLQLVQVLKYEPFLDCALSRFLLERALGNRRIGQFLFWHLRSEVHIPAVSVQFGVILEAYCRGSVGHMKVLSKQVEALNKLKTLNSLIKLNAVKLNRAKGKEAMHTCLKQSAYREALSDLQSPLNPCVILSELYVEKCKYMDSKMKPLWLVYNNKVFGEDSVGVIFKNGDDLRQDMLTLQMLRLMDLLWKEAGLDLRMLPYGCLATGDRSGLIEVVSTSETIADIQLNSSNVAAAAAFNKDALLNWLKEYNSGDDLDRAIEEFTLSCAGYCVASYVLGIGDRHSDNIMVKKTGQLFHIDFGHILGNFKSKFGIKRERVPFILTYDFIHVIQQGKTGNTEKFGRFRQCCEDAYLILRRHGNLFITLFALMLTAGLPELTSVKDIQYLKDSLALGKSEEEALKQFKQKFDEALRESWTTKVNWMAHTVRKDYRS
T3 sequence (P27986 whole entry partner): as the sequence (P27986 whole entry partner) above
T1 sequence (P48736 whole entry): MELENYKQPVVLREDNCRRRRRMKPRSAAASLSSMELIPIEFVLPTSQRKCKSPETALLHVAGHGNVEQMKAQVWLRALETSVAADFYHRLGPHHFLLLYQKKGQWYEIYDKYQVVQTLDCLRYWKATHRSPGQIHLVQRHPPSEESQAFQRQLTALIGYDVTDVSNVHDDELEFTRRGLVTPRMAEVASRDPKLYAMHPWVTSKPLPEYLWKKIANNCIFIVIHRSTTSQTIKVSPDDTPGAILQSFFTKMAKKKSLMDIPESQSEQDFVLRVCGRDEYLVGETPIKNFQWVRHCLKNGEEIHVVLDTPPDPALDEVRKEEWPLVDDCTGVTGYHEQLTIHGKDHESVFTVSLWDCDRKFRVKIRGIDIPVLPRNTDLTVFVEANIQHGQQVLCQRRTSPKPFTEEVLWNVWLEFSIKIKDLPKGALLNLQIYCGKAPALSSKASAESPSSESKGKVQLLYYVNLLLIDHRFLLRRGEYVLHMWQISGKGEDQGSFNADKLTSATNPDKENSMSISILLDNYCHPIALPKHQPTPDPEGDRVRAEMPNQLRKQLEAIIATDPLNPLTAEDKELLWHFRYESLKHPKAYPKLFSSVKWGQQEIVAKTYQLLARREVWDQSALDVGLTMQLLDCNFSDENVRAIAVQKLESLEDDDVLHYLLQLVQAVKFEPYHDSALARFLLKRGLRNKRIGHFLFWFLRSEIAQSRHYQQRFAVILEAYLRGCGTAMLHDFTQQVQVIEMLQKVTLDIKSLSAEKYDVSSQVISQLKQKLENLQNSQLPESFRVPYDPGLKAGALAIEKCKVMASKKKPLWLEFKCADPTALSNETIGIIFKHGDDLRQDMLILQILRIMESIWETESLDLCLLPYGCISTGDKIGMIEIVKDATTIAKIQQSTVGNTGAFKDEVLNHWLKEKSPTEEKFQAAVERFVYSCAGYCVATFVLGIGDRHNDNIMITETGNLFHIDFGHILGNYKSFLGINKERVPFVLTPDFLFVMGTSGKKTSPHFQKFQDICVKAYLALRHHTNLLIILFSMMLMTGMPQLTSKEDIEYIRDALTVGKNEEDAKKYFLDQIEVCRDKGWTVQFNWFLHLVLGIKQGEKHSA

By IC50 is commonly meant the midpoint of a concentration-inhibition curve. `C[C@H](Nc1nc(N)nc(N)c1C#N)c1nc2cccc(Cl)c2c(=O)n1-c1ccc[nH]1` [Compound 289, (S)-2,4-diamino-6-((1-(5-chloro-4-oxo-3-(1H-pyrrol-2-yl)-3,4-dihydroquinazolin-2-yl)ethyl)amino)pyrimidine-5-carbonitrile]: the IC50 worked out at 12 nM on PI3Kγ (Table 2a, same assay); 0.2 nM against PI3Kδ (Table 2a, same assay); 5 nM on PI3Kβ (Table 2a, same assay).

With `C[C@@H](Nc1nc(N)nc(N)c1C#N)c1nc2c(Cl)cc(F)cc2c(=O)n1-c1cc[nH]n1` [Compound 175, (R)-2,4-diamino-6-((1-(8-chloro-6-fluoro-4-oxo-3-(1H-pyrazol-3-yl)-3,4-dihydroquinazolin-2-yl)ethyl)amino)pyrimidine-5-carbonitrile], the half-inhibitory concentration (IC50) on PI3Kγ (Table 2a, same assay) was greater than 10000 nM; against PI3Kδ (Table 2a, same assay) it was 13 nM; at PI3Kβ (Table 2a, same assay), 19 nM.

On to `C[C@H](Nc1nc(N)nc(C(F)F)c1C#N)c1nc2cccc(C(F)(F)F)c2c(=O)n1-c1cc[nH]n1` [Compound 178, (S)-2-amino-4-(difluoromethyl)-6-((1-(4-oxo-3-(1H-pyrazol-3-yl)-5-(trifluoromethyl)-3,4-dihydroquinazolin-2-yl)ethyl)amino)pyrimidine-5-carbonitrile], for which the IC50 on PI3Kγ (Table 2a, same assay) is 2240 nM; on PI3Kδ (Table 2a, same assay), 23 nM; on PI3Kβ (Table 2a, same assay), 34 nM.

Consider `C[C@H](NC(=O)c1nc(Cl)c(N)nc1N)c1nc2c(F)ccc(Cl)c2c(=O)n1-c1cc[nH]n1` [Compound 277, (S)-3,5-diamino-6-chloro-N-(1-(5-chloro-8-fluoro-4-oxo-3-(1H-pyrazol-3-yl)-3,4-dihydroquinazolin-2-yl)ethyl)pyrazine-2-carboxamide], for which the half-maximal inhibitory concentration (IC50) stood at 390 nM at PI3Kγ (Table 2a, same assay); 50 nM against PI3Kδ (Table 2a, same assay); 43 nM on PI3Kβ (Table 2a, same assay).

Turning to `C[C@H](Nc1ncnc(N)c1C#N)c1nc2cccc(Cl)c2c(=O)n1-c1cc(C(F)(F)F)[nH]n1` [Compound 6, (S)-4-amino-6-((1-(5-chloro-4-oxo-3-(5-(trifluoromethyl)-1H-pyrazol-3-yl)-3,4-dihydroquinazolin-2-yl)ethyl)amino)pyrimidine-5-carbonitrile], the IC50 was greater than 10000 nM on PI3Kγ, 150 nM against PI3Kδ (setting [1]) and 730 nM against PI3Kβ (setting [1]).

As to `CCC[C@H](Nc1nc(N)nc(N)c1Cl)c1nc2c(Cl)ccc(Cl)c2c(=O)n1-c1cc[nH]n1` [Compound 255, (S)-5,8-dichloro-2-(1-((2,6-diamino-5-chloropyrimidin-4-yl)amino)butyl)-3-(1H-pyrazol-3-yl)quinazolin-4(3H)-one], the IC50 was greater than 10000 nM at PI3Kγ (Table 2a, same assay); 30 nM on PI3Kδ (Table 2a, same assay); 150 nM at PI3Kβ (Table 2a, same assay).

Regarding `CC[C@H](Nc1ncnc2[nH]cc(F)c12)c1nc2c(Cl)ccc(Cl)c2c(=O)n1-c1cc[nH]n1` [Compound 59, (S)-5,8-dichloro-2-(1-((5-fluoro-7H-pyrrolo[2,3-d]pyrimidin-4-yl)amino)propyl)-3-(1H-pyrazol-3-yl)quinazolin-4(3H)-one], the half-maximal inhibitory concentration (IC50) was greater than 10000 nM at PI3Kγ, 2 nM at PI3Kδ and 97 nM on PI3Kβ (setting [1]).

As to `N#Cc1c(N)nc(N)nc1N1CCC[C@H]1c1nc2cccc(Cl)c2c(=O)n1-c1cn[nH]c1` [Compound 23, (S)-2,4-diamino-6-(2-(5-chloro-4-oxo-3-(1H-pyrazol-4-yl)-3,4-dihydroquinazolin-2-yl)pyrrolidin-1-yl)pyrimidine-5-carbonitrile], the IC50 on PI3Kγ (setting [1]) was 740 nM; against PI3Kδ (setting [1]) it was 9 nM; against PI3Kβ (setting [1]), 150 nM.

In the case of `Nc1nc(N)c(Cl)c(N[C@H](c2nc3c(Cl)ccc(Cl)c3c(=O)n2-c2cc[nH]n2)C2CC2)n1` [Compound 71, (S)-5,8-dichloro-2-(cyclopropyl((2,6-diamino-5-chloropyrimidin-4-yl)amino)methyl)-3-(1H-pyrazol-3-yl)quinazolin-4(3H)-one], the concentration for half-maximal inhibition (IC50) on PI3Kγ was greater than 10000 nM; against PI3Kδ (setting [1]) it was 13 nM; at PI3Kβ (setting [1]), 38 nM.

As to `Nc1nc(N)c(Cl)c(N[C@H](c2nc3ccc(F)cc3c(=O)n2-c2cc[nH]n2)C2CC2)n1` [Compound 114, (S)-2-(cyclopropyl((2,6-diamino-5-chloropyrimidin-4-yl)amino)methyl)-6-fluoro-3-(1H-pyrazol-3-yl)quinazolin-4(3h)-one], the half-inhibitory concentration (IC50) is greater than 10000 nM at PI3Kγ, 23 nM on PI3Kδ (setting [1]) and 110 nM against PI3Kβ (setting [1]).

Consider `N#Cc1c(N)nc(N)nc1N[C@H](c1nc2c(C(F)F)cc(F)cc2c(=O)n1-c1cc[nH]n1)C1CC1` [Compound 143, (S)-2,4-diamino-6-((cyclopropyl(8-(difluoromethyl)-6-fluoro-4-oxo-3-(1H-pyrazol-3-yl)-3,4-dihydroquinazolin-2-yl)methyl)amino)pyrimidine-5-carbonitrile], for which the half-maximal inhibitory concentration (IC50) on PI3Kγ (Table 2a, same assay) is 7500 nM; against PI3Kδ (Table 2a, same assay) it was 3 nM; on PI3Kβ (Table 2a, same assay) it was 2 nM.

Regarding `Nc1nc(N)c(Cl)c(N[C@@H](c2ccccc2)c2nc3cccc(Cl)c3c(=O)n2-c2cc[nH]n2)n1` [Compound 109, (S)-5-chloro-2-(((2,6-diamino-5-chloropyrimidin-4-yl)amino)(phenyl)methyl)-3-(1H-pyrazol-3-yl)quinazolin-4(3h)-one], the half-maximal inhibitory concentration (IC50) at PI3Kγ (setting [1]) stood at 4900 nM; at PI3Kδ (setting [1]), 9 nM; at PI3Kβ (setting [1]), 25 nM.

Consider `C[C@H](Nc1nc(N)nc(N)c1C#N)c1nc2cccc(C(F)(F)F)c2c(=O)n1-c1cn[nH]c1` [Compound 206, (S)-2,4-diamino-6-((1-(4-oxo-3-(1H-pyrazol-4-yl)-5-(trifluoromethyl)-3,4-dihydroquinazolin-2-yl)ethyl)amino)pyrimidine-5-carbonitrile], for which the 50% inhibitory concentration (IC50) at PI3Kγ (Table 2a, same assay) is 120 nM; against PI3Kδ (Table 2a, same assay), 2 nM; at PI3Kβ (Table 2a, same assay), 3 nM.

With `CC[C@H](Nc1nc(N)nc(C)c1C#N)c1nc2c(C#N)cccc2c(=O)n1-c1cc[nH]n1` [Compound 76, (S)-2-(1-((2-amino-5-cyano-6-methylpyrimidin-4-yl)amino)propyl)-4-oxo-3-(1H-pyrazol-3-yl)-3,4-dihydroquinazoline-8-carbonitrile], the concentration for half-maximal inhibition (IC50) at PI3Kγ (setting [1]) came out at 6300 nM; on PI3Kδ (setting [1]), 2 nM; against PI3Kβ (setting [1]), 0.6 nM.

Turning to `C[C@H](Nc1nc(N)nc(N)c1Cl)c1nc2c(Cl)ccc(C(F)F)c2c(=O)n1-c1cc[nH]n1` [Compound 227, (S)-8-chloro-2-(1-((2,6-diamino-5-chloropyrimidin-4-yl)amino)ethyl)-5-(difluoromethyl)-3-(1H-pyrazol-3-yl)quinazolin-4(3H)-one], the concentration for half-maximal inhibition (IC50) was 5000 nM at PI3Kγ (Table 2a, same assay); 8 nM on PI3Kδ (Table 2a, same assay); 9 nM on PI3Kβ (Table 2a, same assay).

On to `CC[C@H](Nc1ncnc2scnc12)c1nc2cccc(Br)c2c(=O)n1-c1cn[nH]c1` [Compound 100, (S)-5-bromo-3-(1H-pyrazol-4-yl)-2-(1-(thiazolo[5,4-d]pyrimidin-7-ylamino)propyl)quinazolin-4(3H)-one], for which the half-maximal inhibitory concentration (IC50) on PI3Kγ (setting [1]) stood at 280 nM; on PI3Kδ (setting [1]), 4 nM; on PI3Kβ (setting [1]), 22 nM.

For the molecule `Cc1nc(N)nc(N[C@H](c2nc3cccc(Cl)c3c(=O)n2-c2cn[nH]c2)C2CC2)c1C#N` [Compound 27, (S)-2-amino-4-(((5-chloro-4-oxo-3-(1H-pyrazol-4-yl)-3,4-dihydroquinazolin-2-yl)(cyclopropyl)methyl)amino)-6-methylpyrimidine-5-carbonitrile], the half-inhibitory concentration (IC50) turned out to be 71 nM on PI3Kγ (setting [1]), 0.7 nM at PI3Kδ (setting [1]) and 2 nM on PI3Kβ (setting [1]).

Take `CC[C@H](Nc1ncnc2scnc12)c1nc2cccc(Br)c2c(=O)n1-c1cc[nH]n1` [Compound 101, (S)-5-bromo-3-(1H-pyrazol-3-yl)-2-(1-(thiazolo[5,4-d]pyrimidin-7-ylamino)propyl)quinazolin-4(3H)-one]: the IC50 at PI3Kγ (setting [1]) came out at 960 nM; on PI3Kδ (setting [1]), 0.5 nM; at PI3Kβ (setting [1]) it was 1 nM.

On to `CCC[C@H](Nc1nc(N)nc(N)c1Cl)c1nc2cccc(Cl)c2c(=O)n1-c1c[nH]cn1` [Compound 282, (S)-5-chloro-2-(1-((2,6-diamino-5-chloropyrimidin-4-yl)amino)butyl)-3-(1H-imidazol-4-yl)quinazolin-4(3H)-one], for which the IC50 at PI3Kγ (Table 2a, same assay) was 5700 nM; on PI3Kδ (Table 2a, same assay), 26 nM; at PI3Kβ (Table 2a, same assay), 120 nM.

On to `CC[C@H](Nc1nc(N)nc(N)c1C#N)c1nc2cccc(C#N)c2c(=O)n1-c1cn[nH]c1` [Compound 102, (S)-2-(1-((2,6-diamino-5-cyanopyrimidin-4-yl)amino)propyl)-4-oxo-3-(1H-pyrazol-4-yl)-3,4-dihydroquinazoline-5-carbonitrile], for which the IC50 at PI3Kγ (setting [1]) is 2500 nM; against PI3Kδ (setting [1]), 29 nM; at PI3Kβ (setting [1]) it was 82 nM.

With `N#Cc1c(N[C@H](c2nc3cccc(C(F)F)c3c(=O)n2-c2cc[nH]n2)C2CC2)nc(N)nc1C(F)F` [Compound 177, (S)-2-amino-4-((cyclopropyl(5-(difluoromethyl)-4-oxo-3-(1H-pyrazol-3-yl)-3,4-dihydroquinazolin-2-yl)methyl)amino)-6-(difluoromethyl)pyrimidine-5-carbonitrile], the IC50 at PI3Kγ (Table 2a, same assay) amounted to 2300 nM; on PI3Kδ (Table 2a, same assay), 26 nM; against PI3Kβ (Table 2a, same assay) it was 29 nM.

As for `C[C@H](Nc1nc(N)nc(N)c1Cl)c1nc2c(Cl)cc(F)cc2c(=O)n1-c1n[nH]cc1Br` [Compound 270, (S)-3-(4-bromo-1H-pyrazol-3-yl)-8-chloro-2-(1-((2,6-diamino-5-chloropyrimidin-4-yl)amino)ethyl)-6-fluoroquinazolin-4(3H)-one], the IC50 was greater than 10000 nM on PI3Kγ (Table 2a, same assay); 26 nM at PI3Kδ (Table 2a, same assay); 2300 nM against PI3Kβ (Table 2a, same assay).

Consider `CC[C@H](Nc1nc(N)nc(N)c1Cl)c1nc2cccc(Cl)c2c(=O)n1-c1cc[nH]n1` [Compound 65, (S)-5-chloro-2-(1-((2,6-diamino-5-chloropyrimidin-4-yl)amino)propyl)-3-(1H-pyrazol-3-yl)quinazolin-4(3H)-one], for which the IC50 on PI3Kγ (setting [1]) came out at 4200 nM; against PI3Kδ (setting [1]), 9 nM; at PI3Kβ (setting [1]) it was 18 nM.
